Patent publication US20040235759A1, “Use of azalide antibiotic compositions for treating or preventing a bacterial or protozoal infection in mammals” (Pfizer Inc, priority 2000, published 2004)

Legend:
[1] = test system: Eimeria bovis, Eimeria aubumenis and Eimeria zuernii coccidia oocysts; assay: Calves challenged with a coccidia challenge culture (Example 9); assay type: in vivo
Excerpt: Sixty naive calves weighing approximately 110-125 kg were purchased from local dairies, weighed, identified by ear tag, and observed for general health assessments. Animals considered physically abnormal, undersized or moribund on arrival were excluded from the study. Calves were housed in five holding pens (12 animals/pen). Calves were held for 7 days prior to challenge in order to acclimate them to the facility. Prior to challenge, calves were excluded from the study at the discretion of the investigator. On days −6, −4 and −2 pre-challenge, fecal samples were obtained for semi-quantitative oocyst counts. On day −4 pre-challenge, oocysts, if present, were speciated.
On day 8 post-arrival (study day 0), calves were inoculated orally with the Eimeria culture. Beginning on day 1, temperatures were determined and recorded at approximately the same time each day for the duration of the study. Attitude, hydration and fecal consistency scores were evaluated daily. Post-challenge, fecal samples were collected on days 2, 4, 6, 8 and 10. Oocysts were speciated on day 10 post-challenge. On day 10 post-challenge, fifty animals were randomly allotted to one of five treatment groups using a randomized block allotment. Treatments were equally represented in each pen. Animals were injected subcutaneously with a single dose of one of the following solutions: (1) about 4 mL of sterile 0.9% sodium chloride (saline); (2) about 4 mL of 300 mg/mL MICOTIL at a dose of 10 mg/kg of body weight; (3) about 6 mL of the pharmaceutical composition at a dose of 5 mg/kg of body weight; (4) about 3 mL of the pharmaceutical composition at a dose of 2.5 mg/kg of body weight; or animals were drenched dosed orally with (5) about 2 oz. of amprolium in a 9.6% oral solution at a dose of 10 mg/kg of body weight. Only amprolium was re-administered on each of the following four days. All other treatments were given in a single dose injection. Fecal samples were examined semi-quantitatively post-treatment for shedding of coccidia oocysts on days 12, 14, 16 and 18. Beginning on day 19 and continuing through day 28, daily fecal samples were evaluated for semi-quantitative counts. Speciation of shed oocysts was performed on days 19-21, 23, 26 and 28. Calves that died during the course of the study or that were euthanized due to a moribund condition associated with clinical coccidiosis were counted as mortalities. Mortalities were necropsied and gross findings were recorded. At the termination of the study on day 28, all remaining animals were weighed, euthanized and examined post-mortem.
Assessment of drug efficacy was determined based upon analysis of mean daily clinical scores, temperature and oocyst shedding. Differences in clinical scores and temperature between different treatments were evaluated by repeated measures ANOVA. Differences in weight gain were determined by factorial ANOVA. Comparisons of mortality rates and oocyst shedding between treatments was performed using Chi-Square analysis and Fisher's Exact test.

[2] = Equilibration of N-(n-propyl) isomer I and isomer II in heated aqueous acid solution, HPLC (Example 2, Table 1); assay type: physicochemical; conditions: N-(n-propyl) isomer I prior to equilibration, for comparison
Excerpt: The equilibrium ratio of N-(n-propyl) isomer I and N-(n-propyl) isomer II (about 90%±4% to about 10%±4%, respectively) was consistent for all experiments. […] Without being bound by any theory, lower equilibration temperatures or lower pH values generally result in substantially longer equilibration times. Equilibration time can also depend on, inter alia, the concentration of starting material, and the type and concentration of the acid used. N-(n-propyl) isomer I at a concentration of up to about 300 mg per mL of composition was heated to a temperature of about 40° C. to about 80° C. in the presence of one or more acids at a concentration of about 0.2 mmol to about 1.0 mmol per mL of mixture and with a sufficient quantity of hydrochloric acid to achieve a pH of about 6.5 to about 7.5 for up to about 20 hours to produce an equilibrium mixture of isomers that is about 95%-98% pure. Equilibration kinetic parameters and impurity levels for equilibration of N-(n-propyl) isomer I and N-(n-propyl) isomer II were determined as a function of pH, equilibration temperature, type of acid, and N-(n-propyl) isomer I concentration and are listed in Table 1. […]
Equilibrium mixtures of isomers were prepared and assayed as follows. […] Where 0.1 M citric or tartaric acid was used, hydrochloric acid was also added in a quantity sufficient to obtain the pH listed in column 2. […]

Pasteurella multocida = assay: Therapeutic efficacy in swine infected with Pasteurella multocida (Example 5); assay type: in vivo; conditions: pigs, P. multocida challenge, 1.25 mg/kg intramuscular
Excerpt: By Apotency-actual@ number, as used herein, is meant the actual mg per mL of the substantially pure mixture or equilibrium mixture of N-(n-propyl) isomer I and N-(n-propyl) isomer II present in the pharmaceutical composition.
Fifty clinically normal and healthy pigs having a consistent body weight of approximately 10 kg were selected from a pool of 60 animals. Selected animals (10 per treatment) were randomly assigned to treatment and sorted into pens accordingly. On day 0, each animal was inoculated endotracheally with 25 mL of Pasteurella multocida challenge culture. […] Temperatures and illness scores were recorded 6 hours post-challenge and once daily beginning at 24 hours post-challenge. […] An estimate of the percentage of affected lung tissue was determined and recorded. […]
Assessment of efficacy was determined based upon comparison of mean daily illness scores, temperatures and lung-lesion scores. Differences between treatments for mean daily rectal temperatures and illness scores were evaluated by a repeated measures analysis of variance. Differences between mean lung-lesion scores for each treatment were evaluated using a factorial analysis of variance procedure. […]

[3] = test system: Actinobacillus pleuropneumoniae; assay: Pigs at a high risk for developing an Actinobacillus pleuropneumoniae infection, seeder-pig exposure (Example 8); assay type: in vivo
Excerpt: One hundred and thirty clinically healthy pigs having an average body weight of approximately 10 kg were purchased, identified with an ear tag and acclimated to the study site 2 days before the study began. On day −1, all animals were weighed and 100 animals were selected for consistency of body weight (about 10 kg) and lack of signs of clinical abnormalities. Selected animals (20 per treatment) were randomly assigned to treatment and sorted into individual pens. A group of 25 additional animals were randomly assigned as seeder pigs (5 per treatment). […] Temperatures and illness scores were recorded daily. […] An estimate of the percentage of affected lung tissue was determined and recorded. […]
Assessment of efficacy was determined based upon comparison of mean daily illness scores, temperatures and lung-lesion scores. Differences between treatments for mean daily rectal temperatures and illness scores were evaluated by a repeated-measures analysis of variance. […]

[4] = amprolium, MICOTIL, or pharmaceutical composition at either dose level

CCCc1ncc(C[n+]2ccccc2C)c(N)n1 [Amprolium, amprolium]
21-day Average Daily Weight Gain ([1]; 10 mg/kg oral drench from day 10 post-challenge, re-administered on each of the following four days): 0.60 kg
mean daily hydration scores compared to the saline treated calves ([1]; amprolium 10 mg/kg oral): statistically significant reductions (p<0.05)
mean daily attitude scores compared to the saline controls [1, 4]: significant reductions (p<0.05)
mean daily fecal consistency scores compared to the saline treated calves [1, 4]: statistically significant reductions (p<0.05)
oocyst shedding compared to the saline controls ([1]; days 19-28 post-challenge): decreased

CCCNC[C@]1(O)[C@H](C)O[C@@H](O[C@H]2[C@H](C)[C@@H](O[C@@H]3O[C@H](C)C[C@H](N(C)C)[C@H]3O)[C@](C)(O)C[C@@H](C)CN[C@H](C)[C@@H](O)[C@](C)(O)[C@@H](CC)OC(=O)[C@@H]2C)C[C@@]1(C)OC [DS]
% Equilibrium mixture of isomers [2]: 98.39%
% Impurities [2]: 1.61%

CN1C[C@@H]2C[C@H]1CN2c1cc2c(cc1F)c(=O)c(C(=O)O)cn2C1CC1 [Danofloxacin, danofloxacin]
Mean Lung Lesion Score (%) (Pasteurella multocida; re-administered on each of the following two days): 1.9%
mean daily illness scores (Pasteurella multocida; three doses, saline about 3): about 2
Mean Lung-lesion Score ([3]; pigs exposed to A. pleuropneumoniae seeder pigs, 1.25 mg/kg intramuscular, re-administered on each of the following two days): 4.8%
mean daily illness scores in the saline-treated pigs compared to treated animals ([3]; pigs, danofloxacin 1.25 mg/kg x3, pharmaceutical composition 2.5, 5, 10 mg/kg): Statistically significant (p<0.05) elevations
